Measurements reported in paper PMC12592486 (Scientific Reports, 2025).

Tests used:
α-glucosidase [1] = target: T1, α-glucosidase (Saccharomyces cerevisiae, UniProt P53341); assay: α-glucosidase inhibition assay; type: biochemical, S. cerevisiae
α-glucosidase [2] = target: T1, α-glucosidase; assay: Enzyme kinetics study; type: biochemical, S. cerevisiae

T1 sequence (P53341 whole entry): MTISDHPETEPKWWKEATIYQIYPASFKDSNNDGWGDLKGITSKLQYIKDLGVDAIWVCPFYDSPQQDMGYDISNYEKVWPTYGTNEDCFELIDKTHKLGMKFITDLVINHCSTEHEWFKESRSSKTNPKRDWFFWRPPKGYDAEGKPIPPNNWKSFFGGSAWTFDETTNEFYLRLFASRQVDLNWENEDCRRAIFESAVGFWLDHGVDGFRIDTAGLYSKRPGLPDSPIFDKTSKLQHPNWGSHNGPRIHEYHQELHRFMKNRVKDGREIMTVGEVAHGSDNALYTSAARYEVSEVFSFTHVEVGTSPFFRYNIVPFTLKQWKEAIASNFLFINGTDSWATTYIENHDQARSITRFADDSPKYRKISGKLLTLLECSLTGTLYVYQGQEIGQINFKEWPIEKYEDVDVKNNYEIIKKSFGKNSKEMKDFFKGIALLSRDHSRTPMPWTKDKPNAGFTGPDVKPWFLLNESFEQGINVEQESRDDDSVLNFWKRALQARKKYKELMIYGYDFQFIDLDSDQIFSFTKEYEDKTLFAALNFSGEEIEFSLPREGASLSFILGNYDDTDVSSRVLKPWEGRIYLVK

Row | times/folds more active than the standard inhibitor acarbose (α-glucosidase [1]) | Structure (SMILES) | also measured
1 | 162 folds | O=S(=O)(c1ccc(Cl)cc1)n1cc(C=NNC(=S)Nc2ccc(Br)cc2F)c2ccccc21 [Compound 5u, N-(4-Bromo-2-fluorophenyl)-2-({1-[(4-chlorophenyl)sulfonyl]-1H-indol-3-yl}methylene)hydrazine-1-carbothioamide] | better inhibition of 5u compared to 5p (α-glucosidase [1]; most active vs least active inhibitor): about 11 folds; Ki (α-glucosidase [2]): 3.57 ± 0.0084 µM; type of inhibition (α-glucosidase [2]; Km increases, Vmax constant): competitive type inhibitor
2 | more than 100 folds | O=S(=O)(c1ccc(Cl)cc1)n1cc(C=NNC(=S)Nc2ccc(Br)cc2)c2ccccc21 [Compound 5s, N-(4-Bromophenyl)-2-({1-[(4-chlorophenyl)sulfonyl]-1H-indol-3-yl}methylene)hydrazine-1-carbothioamide] | 
3 | more than 100 folds | O=S(=O)(c1ccc(Cl)cc1)n1cc(C=NNC(=S)Nc2c(Cl)cccc2Cl)c2ccccc21 [Compound 5w, 2-({1-[(4-Chlorophenyl)sulfonyl]-1H-indol-3-yl}methylene)-N-(2,6-dichlorophenyl)hydrazine-1-carbothioamide] | 

Second part, the compound before the results:

Row | Structure (SMILES) | times/folds more active than the standard inhibitor acarbose (α-glucosidase [1]) | also measured
4 | COc1ccc(NC(=S)NN=Cc2cn(S(=O)(=O)c3ccc(Cl)cc3)c3ccccc23)cc1 [Compound 5b, 2-({1-[(4-Chlorophenyl)sulfonyl]-1H-indol-3-yl}methylene)-N-(4-methoxyphenyl)hydrazine-1-carbothioamide] |  | folds more active than 5k (α-glucosidase [1]; 4-methoxyphenyl vs 3-methoxyphenyl): 1.3 folds
5 | CC(C)CNC(=S)NN=Cc1cn(S(=O)(=O)c2ccc(Cl)cc2)c2ccccc12 [Compound 5p, 2-({1-[(4-Chlorophenyl)sulfonyl]-1H-indol-3-yl}methylene)-N-isobutylhydrazine-1-carbothioamide] | fifteen | 
